In publication PMC9481103 (2022):

What was measured:
Assay in all cases: in-line probing
Details in all cases: 20 mM MgCl2, 100 mM KCl, 50 mM Tris-HCl pH 8.3, 28 °C, 42-48 h, apparent
[1] = tested on: aptamer 1 (c-di-GMP-I riboswitch aptamer, cluster 1) (RNA, riboswitch) GUCGUGAACAAGCCACACCCCGGGCGACCGGGGGCCGGAAAGCCGCGGGUCUCAGCAGAGACGGCCGGGUUGCCACCAGGC
[2] = tested on: aptamer 2 (c-di-GMP-I riboswitch aptamer, cluster 2) (RNA, riboswitch) GUCGUGAAGAAGCCACACCCCGGGCGACCGGGGGCCGGAAAGCCGCGGGUCUCAGCAGAGACGGCCGGGUUGCCACCAGAC
[3] = tested on: aptamer 3 (c-AMP-GMP riboswitch aptamer, cluster 3) (RNA, riboswitch) GCCGUGAAAAAACCACACCUCGGGCGACCGGGGGCCGGAAAGCCGCGGGUCUCAAAGGAGAUGGCCGGGUUGCCAGAAGGC

KD ([1]; Hill coefficient fixed at 1)	KD ([2]; Hill coefficient fixed at 1)	KD ([3]; Hill coefficient fixed at 1)	KD ([1]; Hill coefficient fixed at 1, micro sign lost in text layer ("34 M"))	KD ([2]; Hill coefficient fixed at 1, micro sign lost in text layer ("25 M"))	KD ([3]; Hill coefficient fixed at 1, micro sign lost in text layer ("1 M"))	SMILES
~ 20 nM	~ 77 nM	~ 100 nM	–	–	–	Nc1nc2c(ncn2[C@@H]2O[C@@H]3COP(=O)(O)O[C@H]4[C@@H](O)[C@H](n5cnc6c(=O)[nH]c(N)nc65)O[C@@H]4COP(=O)(O)O[C@H]3[C@H]2O)c(=O)[nH]1
–	–	–	~ 34 µM	~ 25 µM	~ 1 µM	Nc1nc2c(ncn2[C@@H]2O[C@@H]3COP(=O)(O)O[C@H]4[C@@H](O)[C@H](n5cnc6c(N)ncnc65)O[C@@H]4COP(=O)(O)O[C@H]3[C@H]2O)c(=O)[nH]1
